According to patent US11628228B2, “99mTc-labeled isonitrile-containing glucose derivative and preparation method and use thereof” (Beijing Shihong Pharmaceutical Research Center, priority 2017, dated 2023):

Columns and labels:
tumor-bearing mice = assay: SPECT imaging in tumor-bearing mice; type: in vivo; settings: 0.2 mL, 700 μCi tail vein, imaging 1 hour later
Protocol: The prepared [^99mTc-(CN3DG)6]^+ or [^99mTc-(CN5DG)6]^+ (0.2 mL, 700 μCi) is injected into tumor-bearing mice through tail vein, and SPECT imaging is performed 1 hour later.

[1] = Determination of the lipid-water partition coefficient (n-octanol/PBS); type: physicochemical
Protocol: One hundred μL of the labeled substance solution (50 μCi) diluted with normal saline is placed into a 2 mL centrifuge tube, and then 800 μL of n-octanol and 700 μL of PBS are added to the centrifuge tube, which is subsequently covered with a cap. The centrifuge tube is vortexed for 3 minutes (2500 r/minute), allowed to stand until the solution is layered, and centrifuged in a centrifuge for 3 minutes (3000 r/minute). Three samples of the upper organic phase and three samples of the lower aqueous phase are taken, each 100 μL, and detected in a γ-counter for the radioactive counts of the organic and aqueous phases, respectively.

S180-bearing mice = assay: Bio-distribution in tumor-bearing mice; type: in vivo; settings: for Blood uptake / Bone uptake / Heart uptake / Kidney uptake / Liver uptake / Lung uptake / Muscle uptake / Small intestine uptake / Spleen uptake / Stomach uptake / Tumor uptake / Tumor/blood ratio / Tumor/muscle ratio: S180-bearing mice, tail vein; for Tumor/liver ratio: tumor-bearing mice, 0.5 hour after injection
Protocol: The labeled solution (0.1 mL, 74 KBq) is injected into mice through the tail vein, and the injection time is recorded. Then the mice were killed by cervical dislocation at different time phases (30 minutes, 60 minutes, and 120 minutes), five mice for each time phase, and the organs of interest such as heart, liver, lung, kidney, spleen, stomach, muscle, blood and tumor are taken out after dissection, and measured with a γ-counter for the radioactive count of each organ. The uptake value of each organ is obtained by calculation based on the mass of the organ (with % ID/g as the unit).

O=C(CCC[N+]#[C][99Tc-5]([C]#[N+]CCCC(=O)NC1C(O)OC(CO)C(O)C1O)([C]#[N+]CCCC(=O)NC1C(O)OC(CO)C(O)C1O)([C]#[N+]CCCC(=O)NC1C(O)OC(CO)C(O)C1O)([C]#[N+]CCCC(=O)NC1C(O)OC(CO)C(O)C1O)[C]#[N+]CCCC(=O)NC1C(O)OC(CO)C(O)C1O)NC1C(O)OC(CO)C(O)C1O (stereo not shown) [[^99mTc-(CN3DG)6]^+]
SPECT imaging: aggregation at the tumor sites (tumor-bearing mice): evident aggregation at the tumor sites | SPECT imaging: concentration in kidney (tumor-bearing mice): relatively high concentration in kidney | SPECT imaging: uptake in other organs (tumor-bearing mice): relatively low | Log P (lipid-water partition coefficient) [1]: −4.01±0.17 | Blood uptake (S180-bearing mice; 30 min): 0.78 ± 0.16 % ID/g | Bone uptake (S180-bearing mice; 30 min): 0.27 ± 0.05 % ID/g | Heart uptake (S180-bearing mice; 30 min): 0.40 ± 0.07 % ID/g | Kidney uptake (S180-bearing mice; 30 min): 2.17 ± 0.43 % ID/g | Liver uptake (S180-bearing mice; 30 min): 0.39 ± 0.12 % ID/g | Lung uptake (S180-bearing mice; 30 min): 0.78 ± 0.12 % ID/g | Muscle uptake (S180-bearing mice; 30 min): 0.37 ± 0.08 % ID/g | Small intestine uptake (S180-bearing mice; 30 min): 0.44 ± 0.08 % ID/g | Spleen uptake (S180-bearing mice; 30 min): 0.28 ± 0.05 % ID/g | Stomach uptake (S180-bearing mice; 30 min): 0.64 ± 0.25 % ID/g | Tumor uptake (S180-bearing mice; 30 min): 1.49 ± 0.08 % ID/g | Tumor/blood ratio (S180-bearing mice; 30 min): 1.91 | Tumor/muscle ratio (S180-bearing mice; 30 min): 4.03 | Blood uptake (S180-bearing mice; 60 min): 0.12 ± 0.03 % ID/g | Bone uptake (S180-bearing mice; 60 min): 0.15 ± 0.02 % ID/g | Heart uptake (S180-bearing mice; 60 min): 0.22 ± 0.04 % ID/g | Kidney uptake (S180-bearing mice; 60 min): 1.05 ± 0.21 % ID/g | Liver uptake (S180-bearing mice; 60 min): 0.23 ± 0.03 % ID/g | Lung uptake (S180-bearing mice; 60 min): 0.23 ± 0.04 % ID/g | Muscle uptake (S180-bearing mice; 60 min): 0.17 ± 0.07 % ID/g | Small intestine uptake (S180-bearing mice; 60 min): 0.21 ± 0.14 % ID/g | Spleen uptake (S180-bearing mice; 60 min): 0.15 ± 0.03 % ID/g | Stomach uptake (S180-bearing mice; 60 min): 0.25 ± 0.07 % ID/g | Tumor uptake (S180-bearing mice; 60 min): 1.00 ± 0.17 % ID/g | Tumor/blood ratio (S180-bearing mice; 60 min): 8.33 | Tumor/muscle ratio (S180-bearing mice; 60 min): 5.88 | Blood uptake (S180-bearing mice; 120 min): 0.04 ± 0.02 % ID/g | Bone uptake (S180-bearing mice; 120 min): 0.13 ± 0.04 % ID/g | Heart uptake (S180-bearing mice; 120 min): 0.22 ± 0.05 % ID/g | Kidney uptake (S180-bearing mice; 120 min): 1.23 ± 0.26 % ID/g | Liver uptake (S180-bearing mice; 120 min): 0.28 ± 0.04 % ID/g | Lung uptake (S180-bearing mice; 120 min): 0.17 ± 0.05 % ID/g | Muscle uptake (S180-bearing mice; 120 min): 0.17 ± 0.05 % ID/g | Small intestine uptake (S180-bearing mice; 120 min): 0.14 ± 0.06 % ID/g | Spleen uptake (S180-bearing mice; 120 min): 0.17 ± 0.06 % ID/g | Stomach uptake (S180-bearing mice; 120 min): 0.31 ± 0.06 % ID/g | Tumor uptake (S180-bearing mice; 120 min): 0.68 ± 0.23 % ID/g | Tumor/blood ratio (S180-bearing mice; 120 min): 17.00 | Tumor/muscle ratio (S180-bearing mice; 120 min): 4.00 | Tumor/liver ratio (S180-bearing mice): 3.82

O=C(CCCCC[N+]#[C][99Tc-5]([C]#[N+]CCCCCC(=O)NC1C(O)OC(CO)C(O)C1O)([C]#[N+]CCCCCC(=O)NC1C(O)OC(CO)C(O)C1O)([C]#[N+]CCCCCC(=O)NC1C(O)OC(CO)C(O)C1O)([C]#[N+]CCCCCC(=O)NC1C(O)OC(CO)C(O)C1O)[C]#[N+]CCCCCC(=O)NC1C(O)OC(CO)C(O)C1O)NC1C(O)OC(CO)C(O)C1O (stereo not shown) [[^99mTc-(CN5DG)6]^+]
SPECT imaging: aggregation at the tumor sites (tumor-bearing mice): evident aggregation at the tumor sites | SPECT imaging: concentration in kidney (tumor-bearing mice): relatively high concentration in kidney | SPECT imaging: uptake in other organs (tumor-bearing mice): relatively low | Log P (lipid-water partition coefficient) [1]: −3.57±0.35 | Blood uptake (S180-bearing mice; 30 min): 1.58 ± 0.15 % ID/g | Bone uptake (S180-bearing mice; 30 min): 0.72 ± 0.11 % ID/g | Heart uptake (S180-bearing mice; 30 min): 0.64 ± 0.12 % ID/g | Kidney uptake (S180-bearing mice; 30 min): 4.69 ± 0.76 % ID/g | Liver uptake (S180-bearing mice; 30 min): 0.61 ± 0.07 % ID/g | Lung uptake (S180-bearing mice; 30 min): 1.58 ± 0.18 % ID/g | Muscle uptake (S180-bearing mice; 30 min): 0.46 ± 0.05 % ID/g | Small intestine uptake (S180-bearing mice; 30 min): 0.74 ± 0.09 % ID/g | Spleen uptake (S180-bearing mice; 30 min): 0.51 ± 0.08 % ID/g | Stomach uptake (S180-bearing mice; 30 min): 0.50 ± 0.09 % ID/g | Tumor uptake (S180-bearing mice; 30 min): 1.83 ± 0.18 % ID/g | Tumor/blood ratio (S180-bearing mice; 30 min): 1.16 | Tumor/muscle ratio (S180-bearing mice; 30 min): 3.98 | Blood uptake (S180-bearing mice; 60 min): 0.55 ± 0.17 % ID/g | Bone uptake (S180-bearing mice; 60 min): 0.41 ± 0.15 % ID/g | Heart uptake (S180-bearing mice; 60 min): 0.41 ± 0.02 % ID/g | Kidney uptake (S180-bearing mice; 60 min): 2.68 ± 0.32 % ID/g | Liver uptake (S180-bearing mice; 60 min): 0.38 ± 0.08 % ID/g | Lung uptake (S180-bearing mice; 60 min): 0.59 ± 0.16 % ID/g | Muscle uptake (S180-bearing mice; 60 min): 0.27 ± 0.10 % ID/g | Small intestine uptake (S180-bearing mice; 60 min): 0.43 ± 0.07 % ID/g | Spleen uptake (S180-bearing mice; 60 min): 0.28 ± 0.07 % ID/g | Stomach uptake (S180-bearing mice; 60 min): 0.37 ± 0.14 % ID/g | Tumor uptake (S180-bearing mice; 60 min): 1.07 ± 0.21 % ID/g | Tumor/blood ratio (S180-bearing mice; 60 min): 1.94 | Tumor/muscle ratio (S180-bearing mice; 60 min): 3.96 | Blood uptake (S180-bearing mice; 120 min): 0.16 ± 0.02 % ID/g | Bone uptake (S180-bearing mice; 120 min): 0.15 ± 0.04 % ID/g | Heart uptake (S180-bearing mice; 120 min): 0.22 ± 0.04 % ID/g | Kidney uptake (S180-bearing mice; 120 min): 2.07 ± 0.13 % ID/g | Liver uptake (S180-bearing mice; 120 min): 0.34 ± 0.08 % ID/g | Lung uptake (S180-bearing mice; 120 min): 0.29 ± 0.06 % ID/g | Muscle uptake (S180-bearing mice; 120 min): 0.18 ± 0.03 % ID/g | Small intestine uptake (S180-bearing mice; 120 min): 0.22 ± 0.08 % ID/g | Spleen uptake (S180-bearing mice; 120 min): 0.17 ± 0.02 % ID/g | Stomach uptake (S180-bearing mice; 120 min): 0.35 ± 0.06 % ID/g | Tumor uptake (S180-bearing mice; 120 min): 0.75 ± 0.07 % ID/g | Tumor/blood ratio (S180-bearing mice; 120 min): 4.69 | Tumor/muscle ratio (S180-bearing mice; 120 min): 4.16 | Tumor/liver ratio (S180-bearing mice): 3.00
